Test results taken from US20100298141A1, “SUBSTITUTED PYRIDINE N-OXIDE HERBICIDES” (E. I. DU PONT DE NEMOURS AND COMPANY, priority 2007, published 2010).

How the values were obtained:
giant foxtail [1] = test: Test C pre-/postemergence test; assay type: in vivo, Setaria faberii
How it was run: (§1)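 Compounds in a non-phytotoxic solvent with surfactant applied preemergence to seeded pots and, at the same time, postemergence to plants 2–18 cm tall (1- to 4-leaf stage). Paddy tests: pots flooded to 3 cm, compound applied into the water, depth held throughout.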

catchweed bedstraw = test: Test C pre-/postemergence test; assay type: in vivo, Galium aparine
How it was run: as §1

crabgrass = test: Test C pre-/postemergence test; assay type: in vivo, Digitaria sanguinalis
How it was run: as §1

lambsquarters = test: Test C pre-/postemergence test; assay type: in vivo, Chenopodium album
How it was run: as §1

Surinam grass = test: Test C pre-/postemergence test; assay type: in vivo, Brachiaria decumbens
How it was run: as §1

barnyardgrass = test: Test C flooded paddy test; assay type: in vivo, Echinochloa crus-galli; conditions: Flood
How it was run: (§2)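 Test compounds are applied straight into paddy water held 3 cm above the soil surface, with that flood maintained for the whole test. After 13 to 15 days in the greenhouse, each species is scored visually relative to controls.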

rice = test: Test C flooded paddy test; assay type: in vivo, Oryza sativa; conditions: Flood
How it was run: as §2

johnsongrass = test: Test C pre-/postemergence test; assay type: in vivo, Sorghum halepense
How it was run: as §1

wheat = test: Test A pre-/postemergence greenhouse test; assay type: in vivo, Triticum aestivum; conditions: for Plant response rating, Wheat: 0 to 100 scale where 0 is no effect and 100 is complete control; for Wheat plant response rating: 0 to 100 scale
How it was run: (§3)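 Sowing in loam/sand; same-day pre (directed soil spray) and post (foliar, 1–2 leaf, 2–10 cm) treatment with surfactant-containing non-phytotoxic solvent formulation; ~10 days in greenhouse; eye-scored injury against untreated plants.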

downy brome = test: Test C pre-/postemergence test; assay type: in vivo, Bromus tectorum
How it was run: as §1

bermudagrass = test: Test C pre-/postemergence test; assay type: in vivo, Cynodon dactylon
How it was run: as §1

velvetleaf = test: Test A pre-/postemergence greenhouse test; assay type: in vivo, Abutilon theophrasti; conditions: for Plant response rating, Velvetleaf: 0 to 100 scale where 0 is no effect and 100 is complete control; for Velvetleaf plant response rating: 0 to 100 scale
How it was run: as §3

soybean = test: Test C pre-/postemergence test; assay type: in vivo, Glycine max
How it was run: as §1

pigweed = test: Test C pre-/postemergence test; assay type: in vivo, Amaranthus retroflexus
How it was run: as §1

morningglory = test: Test C pre-/postemergence test; assay type: in vivo, Ipomoea coccinea
How it was run: as §1

corn = test: Test A pre-/postemergence greenhouse test; assay type: in vivo, Zea mays; conditions: for Plant response rating, Corn: 0 to 100 scale where 0 is no effect and 100 is complete control; for Corn plant response rating: 0 to 100 scale
How it was run: as §3

giant foxtail [2] = test: Test A pre-/postemergence greenhouse test; assay type: in vivo, Setaria faberi; conditions: for Plant response rating, Foxtail, Giant: 0 to 100 scale where 0 is no effect and 100 is complete control; for Foxtail, Giant plant response rating: 0 to 100 scale
How it was run: as §3

[3] = 62 g ai/ha, Preemergence, scale 0 to 100
[4] = 125 g ai/ha, preemergence, scale 0 (no effect) to 100 (complete control)
[5] = Postemergence, 62 g ai/ha, scale 0 to 100, 0 no effect, 100 complete control
[6] = Postemergence, 125 g ai/ha, scale 0 to 100, 0 no effect, 100 complete control
[7] = Postemergence, 250 g ai/ha, scale 0 to 100, 0 no effect, 100 complete control
[8] = Preemergence, 31 g ai/ha, scale 0 to 100 (0 no effect, 100 complete control)
[9] = preemergence, 250 g ai/ha, scale 0 (no effect) to 100 (complete control)
[10] = 62 g ai/ha, scale 0 to 100 (0 no effect, 100 complete control)
[11] = 250 g ai/ha, scale 0 to 100, 0 no effect, 100 complete control, 13 to 15 days
[12] = Postemergence, 500 g ai/ha, 0 is no effect, 100 is complete control
[13] = Preemergence, 125 g ai/ha, 0 no effect, 100 complete control

Question: What does the source list for `Cn1nc(C(F)(F)F)c(C[S+]([O-])c2ccc(F)c[n+]2[O-])c1OC(F)F` (centres unmarked) [Compound 58]?
Answer: Foxtail, Giant plant response rating (giant foxtail [1]; [3]): 100; Foxtail, Giant plant response rating (giant foxtail [1]; [4]): 100; Plant response rating (0 to 100), Foxtail, Giant (giant foxtail [1]; Postemergence, 31 g ai/ha): 0; Plant response rating, Foxtail, Giant (giant foxtail [1]; [5]): 10; Plant response rating, Foxtail, Giant (giant foxtail [1]; [6]): 40; Plant response rating, Foxtail, Giant (giant foxtail [1]; [7]): 60; Plant response rating, Foxtail, Giant (giant foxtail [1]; [8]): 40; Foxtail, Giant plant response rating (giant foxtail [1]; [9]): 100; Galium plant response rating (catchweed bedstraw; [3]): 70; Galium plant response rating (catchweed bedstraw; [4]): 100; Plant response rating, Galium (catchweed bedstraw; [8]): 0; Galium plant response rating (catchweed bedstraw; [9]): 100; Crabgrass, Large plant response rating (crabgrass; [3]): 100; Crabgrass, Large plant response rating (crabgrass; [4]): 100; Plant response rating (0 to 100), Crabgrass, Large (crabgrass; Postemergence, 31 g ai/ha): 0; Plant response rating, Crabgrass, Large (crabgrass; [5]): 0; Plant response rating, Crabgrass, Large (crabgrass; [6]): 0; Plant response rating, Crabgrass, Large (crabgrass; [7]): 45; Plant response rating, Crabgrass, Large (crabgrass; [8]): 50; Crabgrass, Large plant response rating (crabgrass; [9]): 100; Lambsquarters plant response rating (lambsquarters; [3]): 100; Lambsquarters plant response rating (lambsquarters; [4]): 100; Plant response rating (0 to 100), Lambsquarters (lambsquarters; Postemergence, 31 g ai/ha): 0; Plant response rating, Lambsquarters (lambsquarters; [5]): 0; Plant response rating, Lambsquarters (lambsquarters; [6]): 0; Plant response rating, Lambsquarters (lambsquarters; [7]): 30; Plant response rating, Lambsquarters (lambsquarters; [8]): 70; Lambsquarters plant response rating (lambsquarters; [9]): 100; Surinam Grass plant response rating (Surinam grass; [3]): 80; Surinam Grass plant response rating (Surinam grass; [4]): 85; Plant response rating (0 to 100), Surinam Grass (Surinam grass; Postemergence, 31 g ai/ha): 0; Plant response rating (0 to 100), Surinam Grass (Surinam grass; Postemergence, 62 g ai/ha): 0; Plant response rating, Surinam Grass (Surinam grass; [6]): 10; Plant response rating, Surinam Grass (Surinam grass; [7]): 45; Plant response rating, Surinam Grass (Surinam grass; [8]): 70; Surinam Grass plant response rating (Surinam grass; [9]): 100; Plant response rating, Barnyardgrass (barnyardgrass; [10]): 65; Plant response rating, Barnyardgrass (barnyardgrass; [11]): 85; Plant response rating, Rice (rice; [10]): 40; Plant response rating, Rice (rice; [11]): 65; Johnsongrass plant response rating (johnsongrass; [3]): 95; Johnsongrass plant response rating (johnsongrass; [4]): 100; Plant response rating (0 to 100), Johnsongrass (johnsongrass; Postemergence, 31 g ai/ha): 0; Plant response rating, Johnsongrass (johnsongrass; [5]): 0; Plant response rating, Johnsongrass (johnsongrass; [6]): 10; Plant response rating, Johnsongrass (johnsongrass; [7]): 60; Plant response rating, Johnsongrass (johnsongrass; [8]): 85; Johnsongrass plant response rating (johnsongrass; [9]): 100; Plant response rating, Wheat (wheat; Postemergence, 125 g ai/ha): 60; Wheat plant response rating (wheat; [12]): 70; Wheat plant response rating (wheat; [13]): 60; Plant response rating, Wheat (wheat; Preemergence, 500 g ai/ha): 100; Bromegrass, Downy plant response rating (downy brome; [3]): 60; Bromegrass, Downy plant response rating (downy brome; [4]): 100; Plant response rating (0 to 100), Bromegrass, Downy (downy brome; Postemergence, 31 g ai/ha): 0; Plant response rating, Bromegrass, Downy (downy brome; [5]): 0; Plant response rating, Bromegrass, Downy (downy brome; [6]): 0; Plant response rating, Bromegrass, Downy (downy brome; [7]): 60; Plant response rating, Bromegrass, Downy (downy brome; [8]): 0; Bromegrass, Downy plant response rating (downy brome; [9]): 100; Bermudagrass plant response rating (bermudagrass; 62 g ai/ha, Preemergence, scale 0 to 100 (0 no effect, 100 complete control)): 100; Bermudagrass plant response rating (bermudagrass; [4]): 100; Plant response rating (0 to 100), Bermudagrass (bermudagrass; Postemergence, 31 g ai/ha): 0; Plant response rating, Bermudagrass (bermudagrass; [5]): 0; Plant response rating, Bermudagrass (bermudagrass; [6]): 20; Plant response rating, Bermudagrass (bermudagrass; [7]): 40; Plant response rating, Bermudagrass (bermudagrass; [8]): 100; Bermudagrass plant response rating (bermudagrass; [9]): 100; Plant response rating, Velvetleaf (velvetleaf; Postemergence, 125 g ai/ha): 60; Velvetleaf plant response rating (velvetleaf; [12]): 80; Velvetleaf plant response rating (velvetleaf; [13]): 60; Plant response rating, Velvetleaf (velvetleaf; Preemergence, 500 g ai/ha): 100; Soybean plant response rating (soybean; [3]): 100; Soybean plant response rating (soybean; [4]): 100; Plant response rating (0 to 100), Soybean (soybean; Postemergence, 31 g ai/ha): 20; Plant response rating (0 to 100), Soybean (soybean; Postemergence, 62 g ai/ha): 40; Plant response rating, Soybean (soybean; [6]): 60; Plant response rating, Soybean (soybean; [7]): 65; Plant response rating, Soybean (soybean; [8]): 0; Soybean plant response rating (soybean; [9]): 100; Pigweed plant response rating (pigweed; [3]): 100; Pigweed plant response rating (pigweed; [4]): 100; Plant response rating (0 to 100), Pigweed (pigweed; Postemergence, 31 g ai/ha): 0; Plant response rating (0 to 100), Pigweed (pigweed; Postemergence, 62 g ai/ha): 0; Plant response rating, Pigweed (pigweed; [6]): 5; Plant response rating, Pigweed (pigweed; [7]): 10; Plant response rating, Pigweed (pigweed; [8]): 100; Pigweed plant response rating (pigweed; [9]): 100; Morningglory plant response rating (morningglory; [3]): 98; Morningglory plant response rating (morningglory; [4]): 98; Plant response rating (0 to 100), Morningglory (morningglory; Postemergence, 31 g ai/ha): 0; Plant response rating, Morningglory (morningglory; [5]): 0; Plant response rating, Morningglory (morningglory; [6]): 5; Plant response rating, Morningglory (morningglory; [7]): 5; Plant response rating, Morningglory (morningglory; [8]): 80; Morningglory plant response rating (morningglory; [9]): 100; Plant response rating, Corn (corn; Postemergence, 125 g ai/ha): 50; Corn plant response rating (corn; [12]): 70; Corn plant response rating (corn; [13]): 40; Plant response rating, Corn (corn; Preemergence, 500 g ai/ha): 90; Plant response rating, Foxtail, Giant (giant foxtail [2]; Postemergence, 125 g ai/ha): 90; Foxtail, Giant plant response rating (giant foxtail [2]; [12]): 90; Foxtail, Giant plant response rating (giant foxtail [2]; [13]): 100; Plant response rating, Foxtail, Giant (giant foxtail [2]; Preemergence, 500 g ai/ha): 100
